Source: article PMC3400123 (Bioorganic & medicinal chemistry, 2012)

Legend:
MDCKII-MDR1 cells = assay: Transport and cell association across MDCKII-MDR1 monolayers; assay type: in vitro ADME; conditions: for PAB (+ inh): absorptive direction; for PAB (+ inh) / PBA (+ inh): with 5 × 10^−6 M LSN 335984, 5 × 10^−6 M dye, BSA; for Ratio (+/− inh) for % cell associated dye: inhibited / uninhibited pump; for PBA (+ inh) / PBA: secretory direction; for PBA: no inhibitor, 5 × 10^−6 M dye, 4.3 mg mL^−1 BSA
human P-gp-His10 = human P-gp-His10 (Homo sapiens, UniProt P08183); assay: Stimulation of ATPase activity of isolated human P-gp-His10; conditions: read-out: KM (concentration of compound required to achieve 50% maximal stimulation); isolated human P-gp-His10 in sheep brain phosphatidylethanolamine
Chain of human P-gp-His10 (P08183 whole entry): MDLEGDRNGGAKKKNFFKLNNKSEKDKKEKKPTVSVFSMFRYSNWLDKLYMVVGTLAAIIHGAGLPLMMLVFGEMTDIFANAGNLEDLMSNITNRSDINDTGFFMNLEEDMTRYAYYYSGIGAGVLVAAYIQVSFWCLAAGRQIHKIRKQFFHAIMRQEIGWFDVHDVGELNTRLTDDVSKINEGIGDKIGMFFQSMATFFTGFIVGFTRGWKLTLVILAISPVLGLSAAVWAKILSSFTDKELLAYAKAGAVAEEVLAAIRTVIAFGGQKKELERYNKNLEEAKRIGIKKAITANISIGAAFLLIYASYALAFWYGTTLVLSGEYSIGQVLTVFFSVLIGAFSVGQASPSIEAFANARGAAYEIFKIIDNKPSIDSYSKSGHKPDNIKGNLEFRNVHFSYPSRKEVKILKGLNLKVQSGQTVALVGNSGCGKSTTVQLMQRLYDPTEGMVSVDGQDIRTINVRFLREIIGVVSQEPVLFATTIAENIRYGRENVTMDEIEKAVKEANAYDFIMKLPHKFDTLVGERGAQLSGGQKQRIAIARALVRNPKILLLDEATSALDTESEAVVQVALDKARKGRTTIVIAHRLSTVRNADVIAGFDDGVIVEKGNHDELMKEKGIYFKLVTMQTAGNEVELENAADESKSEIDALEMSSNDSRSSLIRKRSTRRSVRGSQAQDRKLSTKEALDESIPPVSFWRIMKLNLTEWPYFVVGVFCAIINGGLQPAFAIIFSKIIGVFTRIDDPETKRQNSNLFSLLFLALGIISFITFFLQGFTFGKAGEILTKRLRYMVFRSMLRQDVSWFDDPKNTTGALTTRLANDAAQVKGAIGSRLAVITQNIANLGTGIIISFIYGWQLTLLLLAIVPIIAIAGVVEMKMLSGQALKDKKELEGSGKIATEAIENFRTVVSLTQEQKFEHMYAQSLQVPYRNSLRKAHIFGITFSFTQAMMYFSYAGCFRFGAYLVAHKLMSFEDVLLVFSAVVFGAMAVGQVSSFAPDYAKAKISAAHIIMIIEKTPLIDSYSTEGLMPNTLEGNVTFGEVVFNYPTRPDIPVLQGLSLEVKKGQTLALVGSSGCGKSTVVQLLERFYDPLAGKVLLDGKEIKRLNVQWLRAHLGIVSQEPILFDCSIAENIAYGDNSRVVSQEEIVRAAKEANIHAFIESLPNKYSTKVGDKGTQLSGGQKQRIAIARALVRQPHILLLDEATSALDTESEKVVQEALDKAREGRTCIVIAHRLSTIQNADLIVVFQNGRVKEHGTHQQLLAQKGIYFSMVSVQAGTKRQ

| SMILES | PAB (+ inh) (MDCKII-MDR1 cells) | Ratio (+/− inh) for % cell associated dye (MDCKII-MDR1 cells) | PBA (+ inh) (MDCKII-MDR1 cells) | Km (human P-gp-His10) [µM] | PBA (MDCKII-MDR1 cells) |
| --- | --- | --- | --- | --- | --- |
| CCN(CC)C(=S)c1ccc(-[c+]2c3ccc(N(C)C)cc3sc3cc4c(cc32)C(C)(C)CCN4C)s1.F[P-](F)(F)(F)(F)F [Compound 10, 6-(5-(diethylcarbamothioyl)thiophen-2-yl)-9-(dimethylamino)-1,4,4-trimethyl-2,3,4,6-tetrahydro-1H-thiochromeno[3,2-g]quinolin-6-ylium hexafluorophosphate] | ≤ 1 ≤ 1 10^−9 m s^−1 | 1.2-2.1 | 1.0 ± 0.1 10^−9 m s^−1 | 3.1 ± 0.7 |  |
| CCN(CC)C(=O)c1ccc(-[c+]2c3ccc(N(C)C)cc3sc3cc4c(cc32)C(C)(C)CCN4C)s1.F[P-](F)(F)(F)(F)F [Compound 9, 6-(5-(diethylcarbamoyl)thiophen-2-yl)-9-(dimethylamino)-1,4,4-trimethyl-2,3,4,6-tetrahydro-1H-thiochromeno[3,2-g]quinolin-6-ylium hexafluorophosphate] | ≤ 1 ≤ 1 10^−9 m s^−1 | 3.3-6.1 | 27.0 ± 0.3 10^−9 m s^−1 | 2.2 ± 1 | 370 ± 17 10^−9 m s^−1 |
| CCN(CC)C(=O)c1ccc(-c2c3ccc(N(C)C)cc3[s+]c3c4c5c(cc23)CCCN5CCC4)s1.F[P-](F)(F)(F)(F)F [Compound 5, 12-(dimethylamino)-2,3,6,7-tetrahydro-9-(5-(diethylcarbamoyl)thiophen-2-yl)-1H,5H-thioxantheno[2,3,4-ij]quinolizin-14-ium hexafluorophosphate] | ≤ 1 ≤ 1 10^−9 m s^−1 | 3.3-6.1 | 17.0 ± 0.4 10^−9 m s^−1 | 3.6 ± 0.4 | 210 ± 22 10^−9 m s^−1 |
| CN(C)c1ccc2c(-c3ccc(C(=O)N4CCCCC4)s3)c3cc4c5c(c3[s+]c2c1)CCCN5CCC4.F[P-](F)(F)(F)(F)F [Compound 7, 12-(dimethylamino)-2,3,6,7-tetrahydro-9-(N-piperidyl-2-thienyl-5-carboxamido)-1H,5H-thioxantheno[2,3,4-ij]quinolizin-14-ium hexafluorophosphate] | ≤ 1 ≤ 1 10^−9 m s^−1 | 3.3-6.1 | 8.1 ± 0.1 10^−9 m s^−1 | 1.9 ± 0.4 | 220 ± 29 10^−9 m s^−1 |
| CCN(CC)C(=O)c1ccc(-c2c3ccc(N(C)C)cc3[s+]c3cc(N(C)C)ccc23)s1 [Compound 1, 3,6-bis(dimethylamino)-9-(5-(diethylcarbamoyl)thiophen-2-yl)thioxan-thylium hexafluorophosphate] |  |  |  | 5.7 ± 1 |  |
| CCN(CC)C(=S)c1ccc(-c2c3ccc(N(C)C)cc3[s+]c3c4c5c(cc23)CCCN5CCC4)s1.F[P-](F)(F)(F)(F)F [Compound 6, 12-(Dimethylamino)-2,3,6,7-tetrahydro-9-(5-(diethylcarbamothioyl)-thiophen-2-yl)-1H,5H-thioxantheno[2,3,4-ij]quinolizin-14-ium hexafluorophosphate] | ≤ 1 ≤ 1 10^−9 m s^−1 | 1.2-2.1 | 2.7 ± 0.1 10^−9 m s^−1 | 2.3 ± 0.4 | 65.0 ± 1.5 10^−9 m s^−1 |
| CCN(CC)C(=S)c1ccc(-c2c3ccc(N(C)C)cc3[s+]c3cc(N(C)C)ccc23)s1.F[P-](F)(F)(F)(F)F [Compound 2, 3,6-bis(dimethylamino)-9-(5-(diethylcarbamothioyl)thiophen-2-yl)thioxanthylium hexafluorophosphate] | ≤ 1 ≤ 1 10^−9 m s^−1 |  |  | 5.8 ± 0.6 | 210 ± 17 10^−9 m s^−1 |
